Earlier results as cited in US20060089343A1, “Superoxide dismutase mimics for the treatment of ocular disorders and diseases” (ALCON, INC., priority 2002, published 2006).

Experiments:
[1] = diabetogenic T-cell clone
[2] = tested on: IL-6 and MIP-2; details: administration after induction of cerebral ischemia
[3] = diabetic rats
[4] = given either before or after induction of cerebral ischemia
[5] = albino rats

CCN1C=CC=C/C1=C1/C2=NC(=C(c3cccc[n+]3CC)C3=NC(=C(c4cccc[n+]4CC)c4ccc([n-]4)C(c4cccc[n+]4CC)=C4C=CC1=N4)C=C3)C=C2.[Cl-].[Cl-].[Cl-].[Cl-].[Cl-].[Mn+3] [AEOL10113]
onset of diabetes [1]: delay the onset of diabetes

CCn1cc[n+](CC)c1C1=C2C=CC3=[N+]2[Mn]24[n]5c1ccc5C(c1n(CC)cc[n+]1CC)=C1C=CC(=[N+]12)C(c1n(CC)cc[n+]1CC)=c1ccc([n]14)=C3c1n(CC)cc[n+]1CC [Compound 1]
expression of pro-inflammatory proteins, such as IL-6 and MIP-2 [2]: attenuation of the increased expression

[Cl-].[Cl-].[Mn+2].c1cc2nc(c1)CN[C@@H]1CCCC[C@H]1NCCN[C@@H]1CCCC[C@H]1NC2 [Compound M40403]
vascular and neural dysfunction [3]: prevented vascular and neural dysfunction

CC[n+]1ccccc1C1=C2C=CC3=[N+]2[Mn]24[n]5c1ccc5C(c1cccc[n+]1CC)=C1C=CC(=[N+]12)C(c1cccc[n+]1CC)=c1ccc([n]14)=C3c1cccc[n+]1CC [Compound 2]
infarct volume [4]: reduces infarct volume

CC1(C)CC(O)CC(C)(C)N1[O] [4-hydroxy-2,2,6,6-tetramethylpiperidine-1-oxyl]
light-induced retinal damage [5]: inhibited light-induced retinal damage
